Entries after “also recorded” stand apart in the source; their conditions may differ.
What was measured:
[1] = tested on: endothelin-1 (ET-1)-induced ischemia/reperfusion injury of optic nerve head and retina; assay: OA-RI by Echo-Color-Doppler, Compound (I) vs des-nitro Compound (Ia) (Example 2); assay type: in vivo, rabbits; details: for OA-RI, ET-1 + treatment Week 3 / OA-RI, ET-1 + treatment Week 4 / OA-RI, ET-1 + treatment Week 5 / OA-RI, ET-1 + treatment Week 6: Cpd (I) 1.0% / Cpd (Ia) 0.93% (equimolar), topical twice daily from week 3; for OA-RI, ET-1 (1st dose) Week 2: ET-1 only, before treatment; for Effect on OA-RI / ocular perfusion (in words): ET-1 rabbit model, equimolar doses, weeks 3-6; for OA-RI, Baseline Week 0: before ET-1 and treatment
Description: This study evaluated the ocular hemodynamic effects of repeated topical ocular dosing of Compound (I) in comparison to its des-nitro derivative Compound (Ia) administered at equimolar doses in rabbits with endothelin-1 (ET-1)-induced ischemia/reperfusion injury of optic nerve head and retina. Method: ET-1 was injected next to the optic nerve head twice/week for 6 weeks. Animals received Compound (I) (1% twice daily, 6 days/week), Compound (Ia) (0.93%, equimolar to 1% Compound (I)) or vehicle from week 3 until the end of ET-1 treatment. Functional endpoint was ophthalmic artery resistive index (OA-RI) determined using an Echo-Color-Doppler.

[2] = tested on: ischemia/reperfusion injury of the optic nerve induced by the subtenon injection of endothelin-1 (ET-1) in rabbits; assay: Electroretinogram (ERG) recording, ET-1 ischemia/reperfusion model (Example 1); assay type: in vivo, New Zealand white (NZW) rabbits
Description: (§1) These experiments were performed to determine the effects of [(2S)-1-(4-{[(3-chloro-4-methoxyphenyl)methyl]amino}-5-{[(pyrimidin-2yl)methyl]carbamoyl}pyrimidin-2-yl)pyrrolidin-2-yl]methyl 6-(nitrooxy)hexanoate (Compound (I)) on ocular vascular reactivity and retinal function after ocular topical dosing in a model of ischemia/reperfusion injury of the optic nerve induced by the subtenon injection of endothelin-1 (ET-1) in rabbits.
(§2) Adult male New Zealand white (NZW) rabbits weighting 1.5-2.0 kg were used. All animals received a single 30 microL/eye topical dose of Compound (I) (1% w/w) or vehicle (Kolliphor® EL 5.0% w/w, Myrj™ S40 3.0% w/w, Kollisolv® PEG400 2.8% w/w, H3BO3 0.19% w/w, Na2HPO4·7H2O 0.51% w/w, EDTA 0.10% w/w, BAK 0.01% w/w, HCl 0.5N q.s. pH 6.6, purified water q.s. 100 g) twice daily for 4 consecutive weeks starting 2 weeks after Endothelin-1 (ET-1) first dosing.
(§3) Ischemia/reperfusion injury was induced in each animal by subtenon injection (twice/week for 6 weeks) of 200 microL of 250 nM ET-1 dissolved in water using a lacrimal cannula under anaesthesia produced by ketamine and xylazine injected intramuscularly.
Electroretinogram (ERGs) recording took place under topical anaesthesia. The eyes were also dilated by topical application of tropicamide 1% and, when needed, adapted to darkness for at least 2 hours prior to ERGs recording. ERGs recording were performed with standard contact lens corneal electrodes. Specifically, the dark-adapted 0.01 ERG (mostly rod response), dark-adapted 3.0 ERG (combined rod/cone response) and, light-adapted 3.0 (mostly cone response) were recorded.
(§4) Measurements were taken prior to ET-1 first dose (baseline, time 0), then at the end of week 2 (prior to vehicle- or Compound (I) first day-first dose) and at the end of week 6.

[3] = tested on: ischemia/reperfusion injury of the optic nerve induced by the subtenon injection of endothelin-1 (ET-1) in rabbits; assay: Ophthalmic artery resistive index (OA-RI) by Echo Color Doppler, ET-1 ischemia/reperfusion model (Example 1); assay type: in vivo, New Zealand white (NZW) rabbits; details: for Ophthalmic artery resistive index (OA-RI), Baseline: prior to ET-1 dosing (time 0), before test item; for OA-RI, ET-1 (4-weeks) + Test items (2 weeks daily bid): week 4; for OA-RI, ET-1 (4-weeks) + Test items (2 weeks daily bid) / OA-RI, ET-1 (6 weeks) + Test items (4 weeks daily bid): 1% w/w, 30 microL/eye topical twice daily; for OA-RI, ET-1 (6 weeks) + Test items (4 weeks daily bid): week 6
Description: as §1, §2, §3
Ophthalmic Artery Resistive Index (OA-RI) measurements were taken using an Echo Color Doppler prior to ET-1 treatment (baseline, time 0), and weekly thereafter till the end of the study. Pourcelot resistive index for ophthalmic artery (OA-RI) was calculated using the following formula: (OA-PSV−OA-EDV)/OA-PSV where OA-PSV and OA-EDV refer to Ophthalmic Artery Peak Systolic Velocity and Ophthalmic Artery End Diastolic Velocity, respectively.
as §4

[4] = tested on: blood flow nearby the optic nerve head and choroid; details: systemic dosing; British J Ophthalmology 83 (1999); cited from earlier work

SMILES	OA-RI, ET-1 + treatment Week 3 [1]	OA-RI, ET-1 + treatment Week 4 [1]	OA-RI, ET-1 + treatment Week 5 [1]	OA-RI, ET-1 + treatment Week 6 [1]	OA-RI, ET-1 (1st dose) Week 2 [1]	Effect on OA-RI / ocular perfusion (in words) [1]	OA-RI, Baseline Week 0 [1]	Effect on retinal function / ERG (in words) ([2]; ET-1 rabbit model, 4 weeks topical dosing)	ERG Amplitude, ET-1 (6 weeks) + Test items (4 weeks daily bid) ([2]; Light adapted 3.0 (Rod/cone response), 1% w/w, 30 microL/eye topical bid, ± S.D.) [μV]	ERG Amplitude, ET-1 (2 weeks) ([2]; Light adapted 3.0 (Rod/cone response), before first dose of test item, ± S.D.) [μV]	ERG Amplitude, Baseline ([2]; Light adapted 3.0 (Rod/cone response), prior to ET-1, ± S.D.) [μV]	Effect on OA-RI (in words) ([3]; ET-1 rabbit model, topical dosing)	OA-RI, ET-1 (2 weeks) ([3]; after 2 weeks ET-1 twice weekly, before first dose of test item, mean±SD)	Ophthalmic artery resistive index (OA-RI), Baseline ([3]; mean±SD)	Ophthalmic artery resistive index (OA-RI), Baseline ([3]; mean±SD, listed as Cpd (I))	OA-RI, ET-1 (4-weeks) + Test items (2 weeks daily bid) ([3]; mean±SD)	OA-RI, ET-1 (4-weeks) + Test items (2 weeks daily bid) ([3]; mean±SD, listed as Cpd (I))	OA-RI, ET-1 (6 weeks) + Test items (4 weeks daily bid) ([3]; mean±SD)	OA-RI, ET-1 (6 weeks) + Test items (4 weeks daily bid) ([3]; mean±SD, listed as Cpd (I))	Effect on ocular blood flow (in words) [4]
COc1ccc(CNc2nc(N3CCC[C@H]3COC(=O)CCCCCO[N+](=O)[O-])ncc2C(=O)NCc2ncccn2)cc1Cl [Compound (I), [(2S)-1-(4-{[(3-Chloro-4-methoxyphenyl)methyl]amino}-5-{[(pyrimidin-2-yl)methyl]carbamoyl}pyrimidin-2-yl)pyrrolidin-2-yl]methyl 6-(nitrooxy)hexanoate]	0.41 ± 0.01	0.37 ± 0.03	0.37 ± 0.03	0.39 ± 0.03	0.46 ± 0.02	restored baseline OA-RI by week 6; also recorded: ameliorates ocular perfusion	0.34 ± 0.02	increased photoreceptor activity; also recorded: less impairment in the ERG wave amplitude than those treated with vehicle	131.6 ± 46.4	100.5 ± 33.3	115.9 ± 30.0	reduced ophthalmic artery resistive index (OA-RI)	0.48 ± 0.06	0.40±0.08	0.40 ± 0.08	0.43±0.09	0.43 ± 0.09	0.43±0.04	0.43 ± 0.04	–
COc1ccc(CNc2nc(N3CCC[C@H]3COC(=O)CCCCCO)ncc2C(=O)NCc2ncccn2)cc1Cl [Compound (Ia), [(2S)-1-(4-{[(3-Chloro-4-methoxyphenyl)methyl]amino}-5-{[(pyrimidin-2-yl)methyl]carbamoyl}pyrimidin-2-yl)pyrrolidin-2-yl]methyl 6-hydroxyhexanoate, reference compound]	0.49 ± 0.00	0.47 ± 0.01	0.51+0.02	0.48 ± 0.07	0.51 ± 0.01	not effective; also recorded: only resulted in minor activity	0.34 ± 0.02	–	–	–	–	–	–	–	–	–	–	–	–	–
O=[N+]([O-])O[C@@H]1CO[C@H]2[C@@H]1OC[C@@H]2O [ISMN, isosorbide mononitrate]	–	–	–	–	–	–	–	–	–	–	–	–	–	–	–	–	–	–	–	increases blood flow nearby optic nerve head without changes to the choroidal compartment

From patent US20250170131A1, “METHOD FOR THE TREATMENT OF ANTERIOR ISCHEMIC OPTIC NEUROPATHY” (Nicox SA, priority 2022, published 2025)
